According to patent publication US20120309734A1, “COMBRETASTATIN DERIVATIVES AND USES THEREFOR” (priority 2009, published 2012):
Like-named read-outs stand apart in the source and are kept apart here.

Assays:
[1] = target: T1, purified human liver cathepsin-L (Homo sapiens, UniProt P07711); assay: Fluorogenic cathepsin-L activity kit; type: biochemical; details: FIG. 2
T1 construct: uses purified human liver cathepsin-L as the source of the cathepsin; purchased calbiochem; host or cells: human liver
T1 sequence (P07711 114-333): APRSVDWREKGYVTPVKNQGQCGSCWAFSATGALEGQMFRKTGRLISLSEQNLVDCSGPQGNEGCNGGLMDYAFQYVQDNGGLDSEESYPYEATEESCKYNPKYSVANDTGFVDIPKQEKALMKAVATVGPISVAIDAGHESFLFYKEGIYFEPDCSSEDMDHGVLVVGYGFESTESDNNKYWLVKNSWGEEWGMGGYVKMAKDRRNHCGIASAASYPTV
Experimental: Cathepsin L activity was measured using the fluorogenic cathepsin-L activity kit from calbiochem which uses purified human liver cathepsin-L as the source of the cathepsin. […] Values represent the mean+/−range of two separate experiments each carried out in duplicate.

[2] = tested on: human chronic myeloid leukaemia K562 cells; assay: MTT cell viability assay; type: cell-based; details: read-out: Inhibition of cell viability (IC50 value, nM) K562
[3] = tested on: MCF-7 breast cancer cell line; assay: Antiproliferation study, MTT cell viability assay; type: cell-based; details: Homo sapiens
Experimental: All assays were performed in triplicate for the determination of mean values reported. Compounds were assayed as the free bases isolated from reaction. The human breast tumour cell line MCF-7 was cultured in Eagles minimum essential medium in a […] atmosphere with 10% fetal bovine serum, 2 mM L-glutamine and 100 μg/mL penicillin/streptomycin. The medium was supplemented with 1% non-essential amino acids. MDA-MB-231 cells were maintained in Dulbecco's Modified Eagle's medium (DMEM), supplemented with 10% (v/v) Fetal bovine serum, 2 mM L-glutamine and 100 μg/mL penicillin/streptomycin (complete medium). Cells were trypsinised and seeded at a density of 2.5×10^4 cells/ml in a 96-well plate and incubated at 37° C., […] atmosphere for 24 h. […] Control wells contained the equivalent volume of the vehicle ethanol (1% v/v). The culture medium was then removed and the cells washed with 100 μL phosphate buffered saline (PBS) and 50 μL MTT added, to reach a final concentration of 1 mg/mL MTT added. Cells were incubated for 2 h in darkness at 37° C. At this point solubilization was begun through the addition of 200 μL DMSO and the cells maintained at room temperature in darkness for 20 min to ensure thorough colour diffusion before reading the absorbance. The absorbance value of control cells (no added compound) was set to 100% cell viability and from this graphs of absorbance versus cell density per well were prepared to assess cell viability and from these, graphs of percentage cell viability versus concentration of subject compound added were drawn.

[4] = tested on: normal mouse mammary epithelial cells; assay: Viability of normal mammary epithelial cells; type: cell-based
Experimental: The maximum toxicity elicited by these drugs on normal cells at a concentration of 10 nM was only 8% (see Table 4).

[5] = tested on: normal mouse mammary epithelial cells; assay: Viability of normal mammary epithelial cells; type: cell-based; details: 72 hr treatment
[6] = tested on: human promyelocytic leukaemia HL-60 cells; assay: MTT cell viability assay; type: cell-based; details: read-out: Inhibition of cell viability (IC50 value, nM) HL-60
MDA-MB-231 cells [7] = assay: Antiproliferation study, MTT cell viability assay; type: cell-based; details: Homo sapiens, read-out: antiproliferative effects, MDA-MB-231
Experimental: All assays were performed in triplicate for the determination of mean values reported. Compounds were assayed as the free bases isolated from reaction. The human breast tumour cell line MCF-7 was cultured in Eagles minimum essential medium in a […] atmosphere with 10% fetal bovine serum, 2 mM L-glutamine and 100 μg/mL penicillin/streptomycin. The medium was supplemented with 1% non-essential amino acids. MDA-MB-231 cells were maintained in Dulbecco's Modified Eagle's medium (DMEM), supplemented with 10% (v/v) Fetal bovine serum, 2 mM L-glutamine and 100 μg/mL penicillin/streptomycin (complete medium). […] At this point solubilization was begun through the addition of 200 μL DMSO and the cells maintained at room temperature in darkness for 20 min to ensure thorough colour diffusion before reading the absorbance. The absorbance value of control cells (no added compound) was set to 100% cell viability and from this graphs of absorbance versus cell density per well were prepared to assess cell viability and from these, graphs of percentage cell viability versus concentration of subject compound added were drawn.
(§1) MDA-MB-231 cells were treated with vehicle (1% (v/v) ethanol) or 10 nM, 100 nM, 1 μM and 10 μM (final concentrations) of 25. Cells were harvested after 24, 48 or 72 hours and analysed for DNA content by flow cytometry.

MDA-MB-231 cells [8] = assay: Cell cycle analysis by flow cytometry (PI); type: cell-based, human
Experimental: The MDA-MB-231 cells were seeded at a density of 18×10^4 cells/mL in 5 mL of medium (900,000 cells per flask). After 24 hours the control was treated with 50 μL of ethanol (1% v/v) and selected compound dosed at range 10 nM-10 μM (final concentration, 1% v/v). They were incubated for 72 hours. Following incubation, the cells were removed from the bottom of the flask by scraping and the medium placed in a 20 mL sterilin. They were centrifuged for 10 minutes at 600×g. The supernatant was decanted and the pellet resuspended in 1 mL of ice-cold PBS; cells were again centrifuged for 10 minutes at 600×g. The supernatant was decanted and the pellet resuspended in 200 μL of ice-cold phosphate buffer saline (PBS). Subsequently ice-cold 70% ethanol (2 mL) was slowly added to the tube as it was gently vortexed. The cells were kept at −20° C. for at least one hour. After the fixation 5 μL of FBS was added to the samples. The cells were harvested by centrifugation at 600×g for 10 mins. The ethanol was carefully removed and the pellet resuspended in 400 μL of PBS and transferred to FACS microtubes. A 25 μL aliquot of RNase A (1 mg/mL) and 75 μL of propidium iodide (PI) 1 mg/mL, a DNA binding fluorescent dye, was added to each tube. The samples were wrapped in aluminium foil and incubated for a minimum of 30 min at 37° C. The samples were read at 488 nm using FACscalibur flow cytometer from Becton Dickinson. The FACS data for 10,000 cells was analysed using the Macintosh-based application Cellquest and the data was stored as frequency histograms.
as §1

[9] = tested on: purified bovine brain tubulin; assay: Tubulin polymerization assay (turbidity); type: biochemical
Experimental: The effect of compounds on the assembly of purified bovine brain tubulin was determined spectrophotometrically by monitoring the change in turbidity. This assay used a 96-well plate format with 300 μg of >99% purified bovine brain tubulin in each well. […] 10 μl of 10× strength of each compound tested was pipetted into a half area 96-well plate prewarmed to 37° C. A 100 μl volume of tubulin was then pipetted into the prewarmed plate. Samples were mixed well and tubulin assembly was monitored at an A340 nm at 30 second intervals for 60 minutes at 37° C. in a Spectromax 340PC spectrophotometer (Molecular Devices).

[10] = MCF7, 72 h, antiproliferative activity, MTT, 72 h, read-out: IC50 (μM) MCF-7 cell line

SMILES: COc1ccc(C2C(c3ccc(O)cc3)C(=O)N2c2cc(OC)c(OC)c(OC)c2)cc1O (stereo not drawn) [Compound 14, 4-(3-Hydroxy-4-methoxy-phenyl)-3-(4-hydroxy-phenyl)-1-(3,4,5-trimethoxy-phenyl)-azetidin-2-one]
- inhibition of cathepsin-L activity [1]: inhibited cathepsin-L in the nanomolar range
- IC50 [2]: 0.9 nM
- IC50 [3, 10]: 0.0008 µM
- IC50 ([3]; MCF7, MTT cell viability assay, read-out: Inhibition of cell viability (IC50 value, nM) MCF-7): 0.0008 to 0.0031 µM
- melting point: 152 °C
- Percent viability of normal mammary epithelial cells compared to control ([4]; 10 nM, 72 hr treatment): 90%
- effects on normal mammary epithelial cells ([4]; up to 10 μM): minimal effects
- Percent viability of normal mammary epithelial cells compared to control ([5]; 1 nM): 93.8%
- Percent viability of normal mammary epithelial cells compared to control ([5]; 100 nM): 73.2%
- Percent viability of normal mammary epithelial cells compared to control ([5]; 1 μM): 75.2%
- Percent viability of normal mammary epithelial cells compared to control ([5]; 10 μM): 74.8%
- IC50 [6]: 0.4 nM

SMILES: COc1ccc(C2CC(=O)N2c2cc(OC)c(OC)c(OC)c2)cc1O (stereo not drawn) [Compound 25]
- IC50 (MDA-MB-231 cells [7]): 54 nM
- IC50 [3, 10]: 0.017 µM
- IC50 ([3]; MCF7, read-out: antiproliferative effects, MCF-7): 0.017 µM
- G1 (%) (MDA-MB-231 cells [8]; 10 nM, 24 hours): 48.33 ± 4.18%
- G2/M (%) (MDA-MB-231 cells [8]; 10 nM, 24 hours): 25.61 ± 0.98%
- M5 (%) (MDA-MB-231 cells [8]; 10 nM, 24 hours): 2.84 ± 0.59%
- S (%) (MDA-MB-231 cells [8]; 10 nM, 24 hours): 12.55 ± 2.54%
- Sub-G1 (%) (MDA-MB-231 cells [8]; 10 nM, 24 hours): 3.72 ± 1.97%
- G1 (%) (MDA-MB-231 cells [8]; 10 nM, 48 hours): 45.25 ± 7.37%
- G2/M (%) (MDA-MB-231 cells [8]; 10 nM, 48 hours): 23.71 ± 7.81%
- M5 (%) (MDA-MB-231 cells [8]; 10 nM, 48 hours): 6.10 ± 0.62%
- S (%) (MDA-MB-231 cells [8]; 10 nM, 48 hours): 13.36 ± 2.58%
- Sub-G1 (%) (MDA-MB-231 cells [8]; 10 nM, 48 hours): 11.57 ± 3.06%
- G1 (%) (MDA-MB-231 cells [8]; 10 nM, 72 hours): 48.24 ± 2.79%
- G2/M (%) (MDA-MB-231 cells [8]; 10 nM, 72 hours): 17.68 ± 4.58%
- M5 (%) (MDA-MB-231 cells [8]; 10 nM, 72 hours): 3.55 ± 1.57%
- S (%) (MDA-MB-231 cells [8]; 10 nM, 72 hours): 9.08 ± 2.32%
- Sub-G1 (%) (MDA-MB-231 cells [8]; 10 nM, 72 hours): 15.25 ± 2.03%
- G1 (%) (MDA-MB-231 cells [8]; 100 nM, 24 hours): 18.95 ± 6.60%
- G2/M (%) (MDA-MB-231 cells [8]; 100 nM, 24 hours): 59.43 ± 3.13%
- M5 (%) (MDA-MB-231 cells [8]; 100 nM, 24 hours): 4.87 ± 4.39%
- S (%) (MDA-MB-231 cells [8]; 100 nM, 24 hours): 6.05 ± 0.38%
- Sub-G1 (%) (MDA-MB-231 cells [8]; 100 nM, 24 hours): 4.88 ± 0.85%
- G1 (%) (MDA-MB-231 cells [8]; 100 nM, 48 hours): 10.76 ± 0.34%
- G2/M (%) (MDA-MB-231 cells [8]; 100 nM, 48 hours): 36.42 ± 3.42%
- M5 (%) (MDA-MB-231 cells [8]; 100 nM, 48 hours): 4.61 ± 0.86%
- S (%) (MDA-MB-231 cells [8]; 100 nM, 48 hours): 8.90 ± 0.85%
- Sub-G1 (%) (MDA-MB-231 cells [8]; 100 nM, 48 hours): 37.50 ± 0.71%
- G1 (%) (MDA-MB-231 cells [8]; 100 nM, 72 hours): 13.90 ± 3.62%
- G2/M (%) (MDA-MB-231 cells [8]; 100 nM, 72 hours): 12.62 ± 9.22%
- M5 (%) (MDA-MB-231 cells [8]; 100 nM, 72 hours): 2.99 ± 1.89%
- S (%) (MDA-MB-231 cells [8]; 100 nM, 72 hours): 5.34 ± 4.32%
- Sub-G1 (%) (MDA-MB-231 cells [8]; 100 nM, 72 hours): 63.10 ± 20.06%
- G1 (%) (MDA-MB-231 cells [8]; 1 μM, 24 hours): 19.22 ± 6.19%
- G2/M (%) (MDA-MB-231 cells [8]; 1 μM, 24 hours): 63.16 ± 4.86%
- M5 (%) (MDA-MB-231 cells [8]; 1 μM, 24 hours): 4.31 ± 3.17%
- S (%) (MDA-MB-231 cells [8]; 1 μM, 24 hours): 6.01 ± 2.90%
- Sub-G1 (%) (MDA-MB-231 cells [8]; 1 μM, 24 hours): 7.08 ± 4.20%
- G1 (%) (MDA-MB-231 cells [8]; 1 μM, 72 hours): 14.29 ± 2.20%
- G2/M (%) (MDA-MB-231 cells [8]; 1 μM, 72 hours): 21.24 ± 12.05%
- M5 (%) (MDA-MB-231 cells [8]; 1 μM, 72 hours): 5.97 ± 4.71%
- S (%) (MDA-MB-231 cells [8]; 1 μM, 72 hours): 7.76 ± 0.58%
- Sub-G1 (%) (MDA-MB-231 cells [8]; 1 μM, 72 hours): 50.53 ± 14.78%
- G1 (%) (MDA-MB-231 cells [8]; 10 μM, 24 hours): 29.30 ± 5.95%
- G2/M (%) (MDA-MB-231 cells [8]; 10 μM, 24 hours): 55.36 ± 1.49%
- M5 (%) (MDA-MB-231 cells [8]; 10 μM, 24 hours): 3.85 ± 3.83%
- S (%) (MDA-MB-231 cells [8]; 10 μM, 24 hours): 3.72 ± 0.71%
- Sub-G1 (%) (MDA-MB-231 cells [8]; 10 μM, 24 hours): 3.18 ± 0.25%
- G1 (%) (MDA-MB-231 cells [8]; 10 μM, 48 hours): 14.44 ± 2.28%
- G2/M (%) (MDA-MB-231 cells [8]; 10 μM, 48 hours): 27.25 ± 4.45%
- M5 (%) (MDA-MB-231 cells [8]; 10 μM, 48 hours): 2.28 ± 0.06%
- S (%) (MDA-MB-231 cells [8]; 10 μM, 48 hours): 4.47 ± 0.06%
- Sub-G1 (%) (MDA-MB-231 cells [8]; 10 μM, 48 hours): 51.27 ± 6.31%
- G1 (%) (MDA-MB-231 cells [8]; 10 μM, 72 hours): 17.14 ± 3.31%
- G2/M (%) (MDA-MB-231 cells [8]; 10 μM, 72 hours): 21.81 ± 12.40%
- M5 (%) (MDA-MB-231 cells [8]; 10 μM, 72 hours): 3.38 ± 2.84%
- S (%) (MDA-MB-231 cells [8]; 10 μM, 72 hours): 9.66 ± 1.84%
- Sub-G1 (%) (MDA-MB-231 cells [8]; 10 μM, 72 hours): 46.49 ± 17.49%
- X-fold inhibition of tubulin polymerisation (Vmax ± SEM) ([9]; 1 μM): 1.1 ± 0.2 fold
- X-fold inhibition of tubulin polymerisation (Vmax ± SEM) ([9]; 10 μM): 10.2 ± 2.3 fold
